Assay [1] has as its target Protein farnesyltransferase (Homo sapiens, UniProt P49354+P49356). In words: Inhibition of human EC17 cell-derived FTase using recombinant GST-tagged H-Ras/(3H)-FPP as substrate incubated for 1 hr by liquid scintillation counting method. It counts as protein-complex assay.
The next assay relates to A-431. The experiment in a line: Cytotoxicity against human A431 cells. It counts as cell-based.
The subject of a further assay is A549. The experiment in a line: Cytotoxicity against human A549 cells assessed as decrease in cell viability after 48 hrs by MTT assay. It counts as functional, cell-based. The note with it: A549, 48 h. For orientation: Tetrazolium dyes change colour on reduction, which living cells bring about.
The target in assay [2] is Protein farnesyltransferase (Rattus norvegicus, UniProt Q02293+Q04631). The experiment in a line: Inhibition of recombinant rat FTase alpha/beta expressed in Escherichia coli using NBD-FPP/GST-tagged H-Ras as substrate incubated for 2 hrs by SDS-PAGE method.

pIC50: −log10 of the molar value.

By pIC50 is commonly meant the negative decadic logarithm of the IC50, by convention in mol/L.

`CC[C@@]1(O)C[C@H](O[C@H]2C[C@H]([N+](C)(C)Cc3ccccc3)[C@@H](O[C@H]3C[C@H](O)[C@H](O[C@H]4CCC(=O)[C@H](C)O4)[C@H](C)O3)[C@H](C)O2)c2c(cc3c(c2O)C(=O)c2c(O)cccc2C3=O)[C@H]1C(=O)OC`: the negative-log IC50 (pIC50) in assay [1] was 6.07; in the assay on A-431, less than 5.00.
As to `COC1=C(OC)[C@H](O)[C@H](C/C=C(\C)CC/C=C(\C)CCC=C(C)C)[C@@H](C)C1=O` [ANTROQUINONOL], the negative-log IC50 (pIC50) is 5.49 in the assay with A549 and 5.52 in assay [2].

The values are drawn from ChEMBL document CHEMBL4261500, “New tricks for human farnesyltransferase inhibitor: cancer and beyond” (Medchemcomm, 2017).
